Experimental data taken from ChEMBL document CHEMBL1201862, “PubChem BioAssay data set” (2004).
Calls of active or inactive are those of the source.

Legend:
[1] = target: T1, Replicative DNA helicase DnaB (Mycobacterium tuberculosis, UniProt P9WMR3); test: DnaB intein splicing inhibitors, dose response, biochemical, cell-free fluorescence (AID 449749); assay type: functional
T1 sequence (P9WMR3 whole entry): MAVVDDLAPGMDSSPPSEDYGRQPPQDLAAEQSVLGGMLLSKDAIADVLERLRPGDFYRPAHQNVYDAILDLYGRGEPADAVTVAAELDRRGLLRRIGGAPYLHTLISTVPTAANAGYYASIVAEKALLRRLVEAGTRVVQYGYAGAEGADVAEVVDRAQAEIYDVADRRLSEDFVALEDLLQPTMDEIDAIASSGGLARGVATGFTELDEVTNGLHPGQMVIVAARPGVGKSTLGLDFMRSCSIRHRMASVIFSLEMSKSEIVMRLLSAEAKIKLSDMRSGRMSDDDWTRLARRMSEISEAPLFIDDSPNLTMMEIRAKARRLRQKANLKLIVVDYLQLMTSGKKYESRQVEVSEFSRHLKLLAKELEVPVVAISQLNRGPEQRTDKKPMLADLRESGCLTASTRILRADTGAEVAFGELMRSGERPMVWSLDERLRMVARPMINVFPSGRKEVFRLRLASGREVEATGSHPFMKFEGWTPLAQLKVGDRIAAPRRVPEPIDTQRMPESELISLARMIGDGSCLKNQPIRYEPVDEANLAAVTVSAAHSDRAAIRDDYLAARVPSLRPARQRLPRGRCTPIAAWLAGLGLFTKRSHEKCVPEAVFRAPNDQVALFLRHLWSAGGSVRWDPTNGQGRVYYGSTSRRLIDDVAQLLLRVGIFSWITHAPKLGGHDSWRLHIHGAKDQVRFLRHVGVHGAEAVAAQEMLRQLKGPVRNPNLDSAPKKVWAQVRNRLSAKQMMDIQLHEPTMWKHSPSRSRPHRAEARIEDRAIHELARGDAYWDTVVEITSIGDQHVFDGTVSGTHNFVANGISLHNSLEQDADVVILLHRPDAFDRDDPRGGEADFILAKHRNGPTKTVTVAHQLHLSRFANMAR

[2] = A549 cell cytotoxicity, dose response, cytotoxicity control, plate reader, cherry-pick, antagonist series (AID 743412); assay type: functional, cell-based
[3] = blockade of melanocortin 4 receptor signaling – cell-based, plate reader, cherry pick, counter-screen for LGR2 antagonist project, dose response (AID 743444); assay type: functional;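 note: transfected HEK 293 cells stimulated with alpha-MSH peptide; potency of inhibitors of the alpha-MSH evoked signal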
[4] = target: T2, Protein RecA (Mycobacterium tuberculosis, UniProt P9WHJ3); test: Fluorescence Cell-Free Homogeneous Dose Retest to Identify Inhibitors of RecA-Intein Splicing Activity. [Related pubchem assays (depositor defined):AID2097, AID2223, AID489010, AID492950]; assay type: functional
T2 sequence (P9WHJ3 whole entry): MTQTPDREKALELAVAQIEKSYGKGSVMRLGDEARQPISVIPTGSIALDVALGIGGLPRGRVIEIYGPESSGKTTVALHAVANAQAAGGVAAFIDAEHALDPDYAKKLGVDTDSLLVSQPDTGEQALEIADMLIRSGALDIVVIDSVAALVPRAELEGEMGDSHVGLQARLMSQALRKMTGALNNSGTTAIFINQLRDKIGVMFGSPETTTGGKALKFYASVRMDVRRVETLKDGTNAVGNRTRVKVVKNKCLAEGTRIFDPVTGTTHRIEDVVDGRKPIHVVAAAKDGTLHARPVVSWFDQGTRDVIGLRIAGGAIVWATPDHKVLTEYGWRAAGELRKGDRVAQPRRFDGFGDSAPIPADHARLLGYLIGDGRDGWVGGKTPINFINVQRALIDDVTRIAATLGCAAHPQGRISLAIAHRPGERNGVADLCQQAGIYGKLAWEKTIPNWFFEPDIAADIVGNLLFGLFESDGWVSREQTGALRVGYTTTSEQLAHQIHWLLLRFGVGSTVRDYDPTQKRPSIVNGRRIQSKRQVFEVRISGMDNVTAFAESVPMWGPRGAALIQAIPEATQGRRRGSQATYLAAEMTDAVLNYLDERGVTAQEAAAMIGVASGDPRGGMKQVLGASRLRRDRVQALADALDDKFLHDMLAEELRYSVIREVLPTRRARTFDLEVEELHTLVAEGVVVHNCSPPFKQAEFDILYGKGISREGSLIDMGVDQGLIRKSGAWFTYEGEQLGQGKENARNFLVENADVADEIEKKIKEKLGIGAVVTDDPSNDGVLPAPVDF

[5] = blockers of bursicon-stimulated LGR2 cAMP reporter – cell-based, HEK293, CRE-luciferase reporter, cherry pick, set 2, dose response (AID 743343); assay type: functional;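 note: transfected cells were stimulated with diluted bursicon conditioned medium after compound addition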
[6] = viability loss in HEK293 cells – cell-based, plate reader, cherry-picked samples, cytotoxicity control, dose response (AID 743446); assay type: functional
[7] = Intein inhibitors as potential Tuberculosis drugs, a cytotoxicity screen. [Related pubchem assays (depositor defined):AID2221, AID2223, AID434968, AID435010, AID449749, AID449750, AID489010]; assay type: functional
[8] = viability of uninfected HEp-2 cells – cell-based, HTS, cytotoxicity control for RSV inhibitor project, dose response (AID 2410); assay type: functional; conditions: human respiratory syncytial virus
[9] = toxicity toward HepG2 liver cells – cell-based, plate reader, cherry-pick, antagonist series, cytotoxicity control, dose response (AID 743416); assay type: functional
[10] = target: T3, Tyrosine-protein phosphatase non-receptor type 22 (Homo sapiens, UniProt Q9Y2R2); test: SAR LYP1 Fluorescent Assay using OMFP substrate for In Vitro dose response studies - Set 2. [Related pubchem assays (depositor defined):AID1779, AID1784, AID2140, AID449726, AID488869]; assay type: functional
T3 sequence (Q9Y2R2 whole entry): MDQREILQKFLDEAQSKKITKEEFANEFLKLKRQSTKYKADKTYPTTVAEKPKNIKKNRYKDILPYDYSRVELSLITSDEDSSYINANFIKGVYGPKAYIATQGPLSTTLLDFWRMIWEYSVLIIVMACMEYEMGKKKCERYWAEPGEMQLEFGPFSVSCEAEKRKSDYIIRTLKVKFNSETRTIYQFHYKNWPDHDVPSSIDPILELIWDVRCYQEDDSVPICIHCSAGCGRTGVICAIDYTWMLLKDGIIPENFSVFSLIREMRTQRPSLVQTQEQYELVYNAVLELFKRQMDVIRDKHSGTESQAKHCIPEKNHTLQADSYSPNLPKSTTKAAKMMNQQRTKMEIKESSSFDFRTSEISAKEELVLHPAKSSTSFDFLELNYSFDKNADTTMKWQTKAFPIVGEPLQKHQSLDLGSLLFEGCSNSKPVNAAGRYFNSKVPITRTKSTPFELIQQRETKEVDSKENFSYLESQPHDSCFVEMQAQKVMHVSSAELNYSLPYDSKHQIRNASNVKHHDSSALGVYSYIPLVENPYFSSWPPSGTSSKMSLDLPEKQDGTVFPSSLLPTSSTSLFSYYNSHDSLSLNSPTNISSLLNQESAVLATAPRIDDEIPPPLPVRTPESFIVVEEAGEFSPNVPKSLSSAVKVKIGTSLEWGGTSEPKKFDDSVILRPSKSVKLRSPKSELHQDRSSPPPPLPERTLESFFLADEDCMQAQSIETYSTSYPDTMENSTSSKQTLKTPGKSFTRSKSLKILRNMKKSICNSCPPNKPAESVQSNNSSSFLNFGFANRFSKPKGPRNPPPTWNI

[11] = target: T3, Tyrosine-protein phosphatase non-receptor type 22; test: PubChem AID 2135
[12] = target: T4, Tyrosine-protein phosphatase non-receptor type 12 (Homo sapiens, UniProt Q05209); test: SAR Selectivity Analysis of small molecule inhibitors of PEST using pCAP in a fluorescence assay. [Related pubchem assays (depositor defined):AID1779, AID1784, AID2135]; assay type: functional
T4 sequence (Q05209 whole entry): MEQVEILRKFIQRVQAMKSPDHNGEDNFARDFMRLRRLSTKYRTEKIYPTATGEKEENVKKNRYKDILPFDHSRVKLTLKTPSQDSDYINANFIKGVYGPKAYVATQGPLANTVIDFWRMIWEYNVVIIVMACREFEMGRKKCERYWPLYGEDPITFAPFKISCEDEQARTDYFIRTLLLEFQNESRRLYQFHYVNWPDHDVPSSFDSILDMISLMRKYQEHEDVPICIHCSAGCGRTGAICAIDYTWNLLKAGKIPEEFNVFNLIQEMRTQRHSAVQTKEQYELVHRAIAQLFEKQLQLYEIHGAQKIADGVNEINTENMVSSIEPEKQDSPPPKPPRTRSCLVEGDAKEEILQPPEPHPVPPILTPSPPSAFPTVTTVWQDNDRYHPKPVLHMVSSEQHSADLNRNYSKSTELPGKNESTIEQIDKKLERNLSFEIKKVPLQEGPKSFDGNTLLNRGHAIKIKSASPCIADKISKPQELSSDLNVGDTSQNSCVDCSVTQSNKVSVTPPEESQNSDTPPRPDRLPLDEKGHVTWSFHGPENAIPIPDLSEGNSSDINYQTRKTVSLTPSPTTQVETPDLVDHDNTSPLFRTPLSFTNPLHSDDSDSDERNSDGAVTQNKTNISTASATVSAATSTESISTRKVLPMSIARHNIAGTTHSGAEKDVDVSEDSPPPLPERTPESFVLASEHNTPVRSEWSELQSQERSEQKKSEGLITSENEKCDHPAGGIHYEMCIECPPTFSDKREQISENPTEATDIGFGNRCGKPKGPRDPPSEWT

[13] = target: T5, Tyrosine-protein phosphatase non-receptor type 7 (Homo sapiens, UniProt P35236); test: inhibition of hematopoietic tyrosine phosphatase HePTP – biochemical, set 2, SAR follow-up (AID 449736); assay type: functional
T5 sequence (P35236 whole entry): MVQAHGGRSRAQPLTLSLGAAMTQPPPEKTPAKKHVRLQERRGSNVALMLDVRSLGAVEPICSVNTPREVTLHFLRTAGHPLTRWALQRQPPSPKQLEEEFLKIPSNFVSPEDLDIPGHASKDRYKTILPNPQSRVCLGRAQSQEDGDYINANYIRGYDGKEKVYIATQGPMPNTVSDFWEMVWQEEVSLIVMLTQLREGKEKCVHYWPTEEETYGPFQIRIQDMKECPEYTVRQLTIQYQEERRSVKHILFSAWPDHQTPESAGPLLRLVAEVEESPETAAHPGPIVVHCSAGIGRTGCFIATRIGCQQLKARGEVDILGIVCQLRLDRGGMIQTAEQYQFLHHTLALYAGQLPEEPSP

[14] = target: T3, Tyrosine-protein phosphatase non-receptor type 22; test: SAR LYP1 Fluorescent Assay using OMFP substrate for In Vitro dose response studies - Set 3. [Related pubchem assays (depositor defined):AID1779, AID1784, AID2140, AID2686]; assay type: functional
[15] = target: T3, Tyrosine-protein phosphatase non-receptor type 22; test: inhibition of lymphoid tyrosine phosphatase LYP – biochemical, pCAP fluorogenic substrate, fluorescence, set 3, SAR follow-up (AID 449727); assay type: functional
[16] = target: T3, Tyrosine-protein phosphatase non-receptor type 22; test: SAR LYP1 Fluorescent Assay using pCAP substrate for In Vitro dose response studies - Set 2. [Related pubchem assays (depositor defined):AID1779, AID1784, AID2135, AID449727]; assay type: functional
[17] = target: T3, Tyrosine-protein phosphatase non-receptor type 22; test: PubChem AID 2140
[18] = Luminescence Cell-Based Dose Response HTS to Identify Inhibitors of 5'UTR Stem-Loop Driven Prion Protein mRNA Translation in H4 Neuroglioblastoma Cells. [Related pubchem assays: 1827 (Project Summary), 1813 (Primary HTS)]; assay type: functional
[19] = viability of HCT116 lacking mutant beta-catenin – cell-based, human colon tumor, dose response (AID 1045); assay type: functional;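 note: HCT116 colon tumor cells with beta catenin knocked out; cells exposed to compound for 60 hours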
[20] = luciferase reporter signal suppression in cells – H4 neuroglioma cells, luminescence, dose response (AID 1990); assay type: functional, cell-based
[21] = tested on: INS1; test: INS-1E survival protection against cytokine death – cell-based, luminescence, retest, dose response (AID 449756); assay type: functional; conditions: Rattus norvegicus;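 note: cell death triggered by IL-1 beta plus TNF-alpha plus IFN-gamma mixture; protective hits raise ATP signal compared with cytokine alone wells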
[22] = alpha-synuclein stem-loop luciferase translation blockers – H4 neuroglioma cells, luminescence, confirmation (AID 1988); assay type: functional, cell-based
[23] = viability of PTEN-deleted HCT116 cells – cell-based, HCT116 PTEN knockout, dose response (AID 1047); assay type: functional;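 note: HCT116 colon tumor cells with PTEN knocked out; cells exposed to compound for 60 hours before readout; potency for loss of cell viability measured by luminescence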

## Cc1sc2ncnc(Sc3nnnn3-c3ccccc3)c2c1C
[1]
  AC50: 3.83 µM (active)
[2]
  AC50: 10.9 µM (active)
[3]
  AC50: 3.94 µM (active)
[4]
  EC50: 3.18 µM (active)
[5]
  AC50: 4.15 µM (active)
[6]
  AC50: 19.3 µM (active)
[7]
  CC50: 14.4 µM (active)
[8]
  CC50: 11.2 µM (active)
[9]
  AC50: 15.4 µM (active)

## CCOc1cc(/C=C(/C#N)c2cccc(F)c2)cc(Cl)c1OCc1ccc(C(=O)O)cc1
[10]
  IC50: 21.8 µM (active)
[11]
  IC50: > 100 µM (inactive)
[12]
  IC50: 5.08 µM (active)
[13]
  IC50: 2.25 µM (active)
[14]
  IC50: 34.6 µM (active)
[15]
  IC50: 46.7 µM (active)
[16]
  IC50: 36.1 µM (active)
[17]
  IC50: > 100 µM (inactive)

## CCOC(=O)C1CCN(C(=O)c2c(C)oc3c2C(=O)c2ccccc2C3=O)CC1
[18]
  EC50: 18.3 µM (active)
[1]
  AC50: 2.06 µM (active)
[4]
  EC50: 0.645 µM (active)
[7]
  CC50: 13.7 µM (active)
[19]
  EC50: 3.32 µM (active)
[20]
  EC50: > 120 µM (not active)
[21]
  AC50: 6.25 µM (active)
[22]
  EC50: 7.82 µM (active)
[23]
  EC50: 3.87 µM (active)
